According to patent publication EP4603105A1, “PHARMACEUTICAL COMPOSITION CONTAINING CYCLIC COMPOUND HAVING SELECTIVE KRAS INHIBITORY EFFECT AGAINST HRAS AND NRAS” (CHUGAI SEIYAKU KABUSHIKI KAISHA, priority 2022, dated 2024):
Like-named read-outs stand apart in the source and are kept apart here. Where a SMILES comes first, the peptide text is derived from it. Bridges are numbered along the chain shown (N, C = ends). [ ]: non-standard residue; d: D form. The star is where a group is joined. hPhe(3-Cl-4-CF3) = N[C@@H](CCc1ccc(C(F)(F)F)c(Cl)c1)C(=O)O; NPrPhe(4-CF3) = CCCN[C@@H](Cc1ccc(C(F)(F)F)cc1)C(=O)O; NEtPhe(4-Me) = CCN[C@@H](Cc1ccc(C)cc1)C(=O)O; NMeGly(cPent) = CN[C@H](C(=O)O)C1CCCC1; NMeD = CN[C@@H](CC(=O)O)C(=O)O; NMeL = CN[C@@H](CC(C)C)C(=O)O; Morpholide = C1CN(*)CCO1; NMeA = CN[C@@H](C)C(=O)O; Ac5c = NC1(C(=O)O)CCCC1; NPrGly = CCCNCC(=O)O; Sar = CNCC(=O)O

Key:
[1] = target: GDP-bound NRAS wild-type protein (Homo sapiens, UniProt P01111); assay: Binding to NRAS by surface plasmon resonance (SPR), KD and KD ratio to KRAS
Procedure, shortened: (§1)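 Affinity is measured by surface plasmon resonance at 30°C against captured, GDP-loaded RAS carrying a biotinylated Avi tag. Compounds are titrated by single-cycle kinetics, and KD comes from a 1:1 fit.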

HRAS wild-type protein = HRAS wild-type protein (Homo sapiens, UniProt P01112); assay: Binding to HRAS by surface plasmon resonance (SPR), KD and KD ratio to KRAS
Procedure, shortened: as §1

[2] = tested on: human lung cancer strain NCI-H441; assay type: cell-based
Procedure, shortened: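 Readout: […] after the ATP-based reagent. Compound: serial dilutions in dimethyl sulfoxide.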

[3] = ratio of KD for GDP-bound NRAS wild-type protein to KD for KRAS
[4] = ratio of KD for HRAS wild-type protein to KD for KRAS
[5] = ratio of the KD value with respect to GDP-bound NRAS wild-type protein to the KD value with respect to KRAS
[6] = ratio of the KD value with respect to HRAS wild-type protein to the KD value with respect to KRAS
[7] = NCI-H441 cells, 4 days, CellTiter-Glo, read-out: NCl-H441 IC50
[8] = ratio of KD value for GDP-bound NRAS wild-type protein to KD value for KRAS (SPR)
[9] = ratio of KD value for HRAS wild-type protein to KD value for KRAS (SPR)

Chain of HRAS wild-type protein (P01112 whole entry): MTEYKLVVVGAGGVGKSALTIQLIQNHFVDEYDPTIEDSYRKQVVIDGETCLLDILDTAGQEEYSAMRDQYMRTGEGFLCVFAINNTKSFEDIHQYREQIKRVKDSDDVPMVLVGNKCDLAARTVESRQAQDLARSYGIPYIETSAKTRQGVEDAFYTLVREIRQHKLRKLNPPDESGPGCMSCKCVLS
Chain of GDP-bound NRAS wild-type protein (P01111 whole entry): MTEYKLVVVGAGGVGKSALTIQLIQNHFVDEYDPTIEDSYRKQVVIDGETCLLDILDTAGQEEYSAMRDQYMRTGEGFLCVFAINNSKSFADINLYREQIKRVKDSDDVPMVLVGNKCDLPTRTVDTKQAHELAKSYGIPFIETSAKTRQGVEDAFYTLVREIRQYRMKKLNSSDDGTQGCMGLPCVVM

SMILES	NRAS /KRAS [1, 3]	HRAS /KRAS (HRAS wild-type protein; [4])	IC50 [2] [nM]	NRAS /KRAS [1, 5]	HRAS /KRAS (HRAS wild-type protein; [6])	IC50 [2, 7] [nM]	NRAS /KRAS [1, 8]	HRAS /KRAS (HRAS wild-type protein; [9])
CCCN1CC(=O)NC2(CCCC2)C(=O)N(C)[C@@H](C2CCCC2)C(=O)N(C)[C@H](C(=O)N2CCOCC2)CC(=O)N(C)[C@@H](CC(C)C)C(=O)N[C@@H]([C@@H](C)CC)C(=O)N(C)CC(=O)N(C)CC(=O)N(CCC)[C@@H](Cc2ccc(C(F)(F)F)cc2)C(=O)N(C)CC(=O)N[C@@H](CCc2ccc(C(F)(F)F)c(Cl)c2)C1=O [PP0267] ([NMeL]I[Sar][Sar][NPrPhe(4-CF3)][Sar][hPhe(3-Cl-4-CF3)][NPrGly][Ac5c][NMeGly(cPent)][NMeD]-Morpholide; lactam N-11)	B (a compound having 3 or more and less than 10 is denoted as B)	B (a compound having 3 or more and less than 10 is denoted as B)	38.2					
CCCOC[C@H]1C(=O)N[C@@H]([C@@H](C)CC)C(=O)N(C)CC(=O)N(C)[C@H]2C/C=C\CCN(C2=O)[C@@H](Cc2ccc(C(F)(F)F)cc2)C(=O)N(C)CC(=O)N[C@@H](CCc2ccc(C(F)(F)F)c(OC)c2)C(=O)N2C[C@H](OCC)C[C@H]2C(=O)NC2(CCC2)C(=O)N(C)[C@@H](C2CCCC2)C(=O)N(C)[C@H](C(=O)N(C)CC)CC(=O)N1C [PP2016]			8.2	A (a compound having 10 or more and less than 20 is denoted as A)	A (a compound having 10 or more and less than 20 is denoted as A)			
CCC[C@H]1C(=O)N[C@@H]([C@@H](C)CC)C(=O)N(C2CC2)CC(=O)N(C)[C@H]2C/C=C\CCN(C2=O)[C@@H](Cc2ccc(C(F)(F)F)cc2)C(=O)N(C)CC(=O)N[C@@H](CCc2cc(F)c(C(F)(F)F)c(F)c2)C(=O)N2C[C@H](OCC)C[C@H]2C(=O)NC2(CC(C)(C)C2)C(=O)N(C)[C@@H](CC2CC2)C(=O)N(C)[C@H](C(=O)N(C)C)CC(=O)N1C [PP2813]	AA (a compound having 20 or more is denoted as AA)	A (a compound having 10 or more and less than 20 is denoted as A)	86					
CCOC[C@H]1C(=O)N[C@@H]([C@@H](C)CC)C(=O)N(C)CC(=O)N(C)[C@H]2C/C=C\CCN(C2=O)[C@@H](Cc2ccc(C(C)C)cc2)C(=O)N(C)CC(=O)N[C@@H](CCc2ccc(C(F)(F)F)c(OC)c2)C(=O)N2C[C@@H](C)C[C@H]2C(=O)NC2(CC(C)(C)C2)C(=O)N(C)[C@@H](C2CCCC2)C(=O)N(C)[C@H](C(=O)N(C)CC)CC(=O)N1C [PP2701]	A (a compound having 10 or more and less than 20 is denoted as A)	A (a compound having 10 or more and less than 20 is denoted as A)				21.7		
CC[C@H](C)[C@@H]1NC(=O)[C@H](C)N(C)C(=O)C[C@@H](C(=O)N2CCOCC2)N(C)C(=O)[C@H](C2CCCC2)N(C)C(=O)C2(CCCC2)NC(=O)[C@@H]2CCCN2C(=O)[C@H](CCc2ccc(C(F)(F)F)c(Cl)c2)NC(=O)CN(C)C(=O)[C@H](Cc2ccc(C)cc2)N(CC)C(=O)CN(C)C(=O)CN(C)C1=O [PP0031] ([NMeA]I[Sar][Sar][NEtPhe(4-Me)][Sar][hPhe(3-Cl-4-CF3)]P[Ac5c][NMeGly(cPent)][NMeD]-Morpholide; lactam N-11)	B (a compound having 3 or more and less than 10 is denoted as B)	C (A compound having a KD ratio of 0.1 or more and less than 3 is denoted as C)	11.4					
CC[C@H](C)[C@@H]1NC(=O)[C@H](CC(C)C)N(C)C(=O)C[C@@H](C(=O)N2CCOCC2)N(C)C(=O)[C@H](C2CCCC2)N(C)C(=O)C2(CCC2)NC(=O)[C@@H]2CC(F)(F)CN2C(=O)[C@H](CCc2cc(F)c(C(F)(F)F)c(F)c2)NC(=O)CN(C)C(=O)[C@H](Cc2ccc(C(F)(F)F)cc2)N2CCCCC[C@@H](C2=O)N(C)C(=O)CN(C)C1=O [PP0464]			17.6	B (a compound having 3 or more and less than 10 is denoted as B)	B (a compound having 3 or more and less than 10 is denoted as B)			
CCOC[C@H]1C(=O)N[C@@H]([C@@H](C)CC)C(=O)N(C)CC(=O)N(C)[C@H]2C/C=C\CCN(C2=O)[C@@H](Cc2ccc3c(c2)CCC3(F)F)C(=O)N(C)CC(=O)N[C@@H](CCc2ccc(C(F)(F)F)c(OC)c2)C(=O)N2C[C@@H](C)C[C@H]2C(=O)NC2(CC(C)(C)C2)C(=O)N(C)[C@@H](C2CCCC2)C(=O)N(C)[C@H](C(=O)N(C)CC)CC(=O)N1C [PP2704]	B (a compound having 3 or more and less than 10 is denoted as B)	B (a compound having 3 or more and less than 10 is denoted as B)				10.7		
CCCN(C)C(=O)[C@@H]1CC(=O)N(C)[C@@H](C)C(=O)N[C@@H]([C@@H](C)CC)C(=O)N(C)CC(=O)N(C)[C@H]2C/C=C\CCN(C2=O)[C@@H](Cc2ccc(C(F)(F)F)cc2)C(=O)N(C)CC(=O)N[C@@H](CCc2cc(F)c(C(F)(F)F)c(F)c2)C(=O)N2C[C@H](OCC)C[C@H]2C(=O)NC2(CCC2)C(=O)N(C)[C@@H](C2CCCC2)C(=O)N1C [PP1666]			8.1				A (a compound having 10 or more and less than 20 is denoted as A)	A (a compound having 10 or more and less than 20 is denoted as A)
CCO[C@@H]1C[C@H]2C(=O)NC3(CC(C)(C)C3)C(=O)N(C)[C@@H](C(CC)CC)C(=O)N(C)[C@H](C(=O)N(C)C)CC(=O)N(C)[C@@H](CC)C(=O)N[C@@H]([C@@H](C)CC)C(=O)N(C)CC(=O)N(C)[C@H]3C/C=C\CCN(C3=O)[C@@H](Cc3ccc(C)cc3)C(=O)N(C)CC(=O)N[C@@H](CCc3ccc(C(F)(F)F)c(Cl)c3)C(=O)N2C1 [PP2154]			17.7	A (a compound having 10 or more and less than 20 is denoted as A)	A (a compound having 10 or more and less than 20 is denoted as A)			
CCO[C@@H]1C[C@H]2C(=O)N(C)C3(CCC3)C(=O)N(C)[C@@H](C3CCCC3)C(=O)N(C)[C@H](C(=O)N(C)C)CC(=O)N(C)[C@@H](C3CC3)C(=O)N[C@@H]([C@@H](C)CC)C(=O)N(C)CC(=O)N(C)[C@H]3C/C=C\CCN(C3=O)[C@@H](Cc3ccc(C)cc3)C(=O)N(C)CC(=O)N[C@@H](CCc3cc(F)c(C(F)(F)F)c(F)c3)C(=O)N2C1 [PP1783]			3.5				A (a compound having 10 or more and less than 20 is denoted as A)	B (a compound having 3 or more and less than 10 is denoted as B)
CCC[C@@H]1C[C@H]2C(=O)NC3(CCC3)C(=O)N(C)[C@@H](C3CCCC3)C(=O)N(C)[C@H](C(=O)N(C)C)CC(=O)N(C)[C@@H](CC(C)C)C(=O)N[C@@H]([C@@H](C)CC)C(=O)N(C)CC(=O)N(C)[C@H]3C/C=C\CCN(C3=O)[C@@H](Cc3ccc(C)cc3)C(=O)N(C)CC(=O)N[C@@H](CCc3cc(F)c(C(F)(F)F)c(F)c3)C(=O)N2C1 [PP2231]			16.2	A (a compound having 10 or more and less than 20 is denoted as A)	B (a compound having 3 or more and less than 10 is denoted as B)			
CC[C@H](C)[C@@H]1NC(=O)[C@H](CC(C)C)N(C)C(=O)C[C@@H](C(=O)N2CCOCC2)N(C)C(=O)[C@H](C2CCCC2)N(C)C(=O)C2(CCCC2)NC(=O)[C@@H]2CC(=O)CN2C(=O)[C@H](CCc2cc(F)c(C(F)(F)F)c(F)c2)NC(=O)CN(C)C(=O)[C@H](Cc2ccc(C(F)(F)F)cc2)N2CCCC[C@@H](C2=O)N(C)C(=O)CN(C)C1=O [PP0555]			48.5	B (a compound having 3 or more and less than 10 is denoted as B)	B (a compound having 3 or more and less than 10 is denoted as B)			
CCCN(C)C(=O)[C@@H]1CC(=O)N(C)[C@@H](CCOC)C(=O)N[C@@H]([C@@H](C)CC)C(=O)N(C)CC(=O)N(C)[C@H]2C/C=C\CCN(C2=O)[C@@H](Cc2ccc(C(F)(F)F)cc2)C(=O)N(C)CC(=O)N[C@@H](CCc2cc(F)c(C(F)(F)F)c(F)c2)C(=O)N2C[C@@H](C)C[C@H]2C(=O)NC2(CC(C)(C)C2)C(=O)N(C)[C@@H](C2CCCC2)C(=O)N1C [PP1974]			50	A (a compound having 10 or more and less than 20 is denoted as A)	A (a compound having 10 or more and less than 20 is denoted as A)			
CCCC[C@H]1C(=O)N[C@@H]([C@@H](C)CC)C(=O)N(C)CC(=O)N(C)[C@H]2C/C=C\CCN(C2=O)[C@@H](Cc2ccc(C(F)(F)F)cc2)C(=O)N(C)CC(=O)N[C@@H](CCc2cc(F)c(C(F)(F)F)c(F)c2)C(=O)N2C[C@H](OCC)C[C@H]2C(=O)NC2(CC(C)(C)C2)C(=O)N(C)[C@@H](C2CCCC2)C(=O)N(C)[C@H](C(=O)N(C)CC)CC(=O)N1C [PP2806]	A (a compound having 10 or more and less than 20 is denoted as A)	A (a compound having 10 or more and less than 20 is denoted as A)	11.3					
CCO[C@@H]1C[C@H]2C(=O)NC3(CCC3)C(=O)N(C)[C@@H](C3CCCC3)C(=O)N(CC)[C@H](C(=O)N3CCOCC3)CC(=O)N(C)[C@@H](CO)C(=O)N[C@@H]([C@@H](C)CC)C(=O)N(C)CC(=O)N(C)[C@H]3CCCCCN(C3=O)[C@@H](Cc3ccc(C(F)(F)F)cc3)C(=O)N(C)CC(=O)N[C@@H](CCc3cc(F)c(C(F)(F)F)c(F)c3)C(=O)N2C1 [PP0945]	B (a compound having 3 or more and less than 10 is denoted as B)	A (a compound having 10 or more and less than 20 is denoted as A)	987					
